{
  "source": "patent US20260364072A1",
  "about": "“METHODS FOR PROMOTING EXPANSION OF HUMAN CD34+ CELLS IN VIVO AND FOR PROMOTING NEURAL REGENERATION” (THE REGENTS OF THE UNIVERSITY OF CALIFORNIA, priority 2023, published 2026)",
  "key": {"MDA-MB-231 cells": {"test_system": "MDA-MB-231 cells", "assay": "IVIS total flux in MDA-MB-231 transplanted mice", "type": "in vivo, human cells in Rag2 neonatal mice", "details": "0 day after completing the dosing plan; compared to vehicle control", "text": "FIG. 5 graphically illustrates IVIS (In Vivo Imaging System) results of ADAR1-MDA-MB-231 transplanted Rag2 mouse models, and IVIS images were taken at 6 weeks after transplant (FIG. 5A), after two weeks of therapy (FIG. 5B), and one week after therapy was completed (FIG. 5C), as discussed in further detail in Example 5, below.\nTen thousand (10k) MDA-MB-231 cells were intrahepatically transplanted into Rag2 neonatal mice, then treated with fedratinib, rebecsinib, or a combination of fedratinib and rebecsinib. IVIS images were taken at 6 weeks after transplant (FIG. 5A), after two weeks of therapy (FIG. 5B), and one week after therapy was completed (FIG. 5C). The IVIS signals from the mice were graphed by groups.\nThe IVIS images of these mice were taken at 0 day after completing the dosing plan and are graphed by their total flux."}, "SF3B3": {"test_system": "SF3B3", "assay": "SF3B3 splice biomarker analysis in human CD45+ cells from normal HSPC engrafted mice", "type": "in vivo", "text": "After completion of treatment and engraftment analyses of in vivo normal HSPC assays, total human hematopoietic cells (CD45^+) were selected for splice biomarker analyses to determine sensitivity of normal human hematopoietic cells to Rebecsinib compared with sAML LSC.\nFor quantitative analysis of splice isoform expression, RNA editing rates, and whole gene expression by qRT-PCR, cells or tissue fragments were harvested in RNA lysis buffer and total RNA was extracted using RNeasy mini or micro extraction kits (QIAGEN, Germantown, MD) following the manufacturer's protocol including a DNase incubation step to digest any trace genomic DNA present. Levels of ADAR1 variants and LSC-specific transcripts were quantified by qRT-PCR as previously described.^14 RNA-editing site-specific qRT-PCR (RESSqPCR) was performed for variants in AZIN1 transcripts.^53 Additional species-specific primers were also designed to quantify intron retention rates in cells treated with Rebecsinib as a biomarker of response to RNA splicing modulation. Specifically, for the two-step SYBR-green based assays, as previously described,^7,14,53 100-1000 ng of RNA were subjected to cDNA synthesis using the SUPERSCRIPT III™ (ThermoFisher Scientific) kit followed by qRT-PCR using SYBR GreenER (ThermoFisher Scientific) master mix according to the manufacturer's recommended procedures. qRT-PCR was performed using SYBR GREENER SUPER MIX™ (Life Technologies) on BioRad iQ5™, C1000 TOUCH™, or BioRad CFX384™ instruments. Human splice isoform-specific, RNA editing site-specific qPCR (RESSqPCR)^53. Primer sets that have not been previously published were designed and tested for efficiency followed by analyses in samples exposed to Rebecsinib, with species-specific HPRT primers used as controls. Samples with Ct<35 for the species-specific reference gene, HPRT, were included in analyses. Relative mRNA expression values were calculated using the 2^−ΔCT method, with normalization to untreated or vehicle-treated controls.^54 […]"}, "ADAR1, CD44v3, MCL1-L": {"test_system": "ADAR1, CD44v3, MCL1-L", "assay": "LSC-associated transcripts and ADAR1 activity after treatment or ADAR1 shRNA knockdown", "type": "cell-based, human", "details": "phenocopied ADAR1 shRNA knockdown", "text": "For lentivirus-mediated knockdown of human ADAR1 in ADAR1 activation and RNA editing biomarker studies of the nanoluc-GFP reporter and endogenous transcripts, human leukemia cells were stably transduced with the lentiviral shRNA vectors targeting ADAR1 (shADAR1) or scrambled control (shCtrl) to ablate endogenous ADAR1 expression. The shRNA plasmids targeting ADAR1 (shADAR1) as well as the scrambled control (shCtrl) were purchased from VectorBuilder (Chicago, IL) (shCtrl: […] (SEQ ID NO:3) and shADAR1: […]) (SEQ ID NO:4). […] Viral titers were assessed by qRT-PCR and transduction efficiency was tested in 293T cells. […]\nFor quantitative analysis of splice isoform expression, RNA editing rates, and whole gene expression by qRT-PCR, cells or tissue fragments were harvested in RNA lysis buffer and total RNA was extracted using RNeasy mini or micro extraction kits (QIAGEN, Germantown, MD) following the manufacturer's protocol including a DNase incubation step to digest any trace genomic DNA present. Levels of ADAR1 variants and LSC-specific transcripts were quantified by qRT-PCR as previously described.^14 RNA-editing site-specific qRT-PCR (RESSqPCR) was performed for variants in AZIN1 transcripts.^53 Additional species-specific primers were also designed to quantify intron retention rates in cells treated with Rebecsinib as a biomarker of response to RNA splicing modulation. […]"}, "[1]": {"test_system": "ADAR1p150 splice isoform; leukemia stem cells", "details": "cited from earlier work"}, "[2]": {"test_system": "KG-1a, MOLM-13 and HL-60 cells (SF3B family members, PTK2B-202)", "assay": "Splice isoform biomarker qRT-PCR in human AML cell lines", "type": "cell-based", "details": "1 μM, 4 hr", "experimental": "For quantitative analysis of splice isoform expression, RNA editing rates, and whole gene expression by qRT-PCR, cells or tissue fragments were harvested in RNA lysis buffer and total RNA was extracted using RNeasy mini or micro extraction kits (QIAGEN, Germantown, MD) following the manufacturer's protocol including a DNase incubation step to digest any trace genomic DNA present. Levels of ADAR1 variants and LSC-specific transcripts were quantified by qRT-PCR as previously described.^14 RNA-editing site-specific qRT-PCR (RESSqPCR) was performed for variants in AZIN1 transcripts.^53 Additional species-specific primers were also designed to quantify intron retention rates in cells treated with Rebecsinib as a biomarker of response to RNA splicing modulation. Specifically, for the two-step SYBR-green based assays, as previously described,^7,14,53 100-1000 ng of RNA were subjected to cDNA synthesis using the SUPERSCRIPT III™ (ThermoFisher Scientific) kit followed by qRT-PCR using SYBR GreenER (ThermoFisher Scientific) master mix according to the manufacturer's recommended procedures. qRT-PCR was performed using SYBR GREENER SUPER MIX™ (Life Technologies) on BioRad iQ5™, C1000 TOUCH™, or BioRad CFX384™ instruments. Human splice isoform-specific, RNA editing site-specific qPCR (RESSqPCR)^53. Primer sets that have not been previously published were designed and tested for efficiency followed by analyses in samples exposed to Rebecsinib, with species-specific HPRT primers used as controls. […] Relative mRNA expression values were calculated using the 2^−ΔCT method, with normalization to untreated or vehicle-treated controls.^54\nFor multi-species biomarker development and transcript variant-specific qRT-PCR experiments, human AML cell lines KG-1a, MOLM-13, and HL-60, and rat leukemia cells RBL-1 were grown to confluence and treated with 1 μM Rebecsinib for 4 hr. Cells were collected and lysed in Qiagen RNA lysis buffer, and analyzed using the species-specific primers and qRT-PCR procedures described above."}},
  "data": [
    {"smiles": "CC[C@H](OC)[C@@H](C)[C@H]1O[C@@H]1[C@@H](O)[C@H](C)/C=C/C=C(\\C)[C@H]1OC(=O)C[C@H](O)CC[C@@](C)(O)[C@@H](OC(C)=O)/C=C/[C@@H]1C", "note": "[Rebecsinib]", "values": [
      {"measurement": "total flux (IVIS)", "setting": "MDA-MB-231 cells", "result": "significantly decreased"},
      {"measurement": "SF3B3 intron retention in bone marrow", "setting": "SF3B3; normal human CD45+ cells", "result": "no changes in SF3B3 intron retention"},
      {"measurement": "SF3B3 intron retention in spleen", "setting": "SF3B3; normal human CD45+ cells", "result": "trend toward changes in the spleen that were not statistically significant"},
      {"measurement": "sensitivity of sAML LSC to splicing modulation versus normal HSPCs", "setting": "SF3B3; therapeutic index, humanized mouse models", "result": "sAML LSC are significantly more sensitive to splicing modulation than normal HSPCs"},
      {"measurement": "ADAR1 activity", "setting": "ADAR1, CD44v3, MCL1-L", "result": "repression of ADAR1 activity"},
      {"measurement": "expression of LSC-associated transcripts, such as CD44v3 and MCL1-L", "setting": "ADAR1, CD44v3, MCL1-L", "result": "reduced expression of LSC-associated transcripts"},
      {"measurement": "activation of the interferon-inducible ADAR1p150 splice isoform", "setting": "[1]", "result": "inhibit activation of the interferon-inducible ADAR1p150 splice isoform"},
      {"measurement": "malignant splice isoform switching", "setting": "[1]", "result": "reverse malignant splice isoform switching"},
      {"measurement": "leukemia stem cell (LSC) maintenance", "setting": "[1]; in vitro and in preclinical patient-derived AML mouse models", "result": "significantly reduce leukemia stem cell (LSC) maintenance"},
      {"measurement": "expression of PTK2B-202 isoform", "setting": "[2]", "result": "Decreased expression of the LSC-related PTK2B-202 isoform"},
      {"measurement": "intronic retention of SF3B family members", "setting": "[2]; KG-1a, MOLM-13 and HL-60", "result": "significant upregulation of intronic retention of SF3B family members"},
      {"measurement": "SF3B3 intron retention response", "setting": "[2]; across all cell lines", "result": "most potent and consistent response"}
    ]}
  ]
}
